# Test results as given in patent US12364764B2, “Sustained release thermosetting gels comprising sodium channel blockers and the methods of making same” (Pacira Therapeutics, Inc., priority 2019, dated 2025).
# Assay: Measured drug load / API content of funapide gel formulations
# Assay type: physicochemical
compound,measurement,value
O=C1N(Cc2ccc(C(F)(F)F)o2)c2ccccc2[C@]12COc1cc3c(cc12)OCO3 [funapide],drug concentration that can be loaded within the thermosensitive hydrogel formulation,up to 20 mg/mL
